Results as given in the NIST ThermoML archive (doi:10.1016/j.jct.2018.02.001).

How the values were obtained:
[1] = mn = molality of the nth substance listed, in mol/kg; conditions: 100 kPa, Liquid, Vibrating tube method
[2] = 101.33 kPa, Liquid, Vibrating tube method

CCCCCC[n+]1ccn(CCCC)c1.[Br-] [1-butyl-3-hexyl-1H-imidazolium bromide] + O
mass density [kg/m3], [1]
Conditions	m1 = 0.0051	m1 = 0.0109	m1 = 0.01511	m1 = 0.01999	m1 = 0.02536	m1 = 0.03025	m1 = 0.03503	m1 = 0.03996	m1 = 0.0452	m1 = 0.05
293.15 K	998.4	998.6	998.8	999	999.22	999.42	999.62	999.82	1000.03	1000.23
298.15 K	997.22	997.41	997.6	997.79	998.01	998.2	998.39	998.58	998.79	998.978
303.15 K	995.73	995.88	996.06	996.24	996.44	996.64	996.82	997.01	997.21	997.38
308.15 K	994.04	994.09	994.2	994.38	994.6	994.81	994.99	995.17	995.35	995.51

CCCCCC[n+]1ccn(CCCC)c1.[Br-] [1-butyl-3-hexyl-1H-imidazolium bromide]
[2]
Conditions	mass density [kg/m3]
293.15 K	1148.8
298.15 K	1145.49
303.15 K	1142.11
308.15 K	1138.66
313.15 K	1135.17
318.15 K	1131.7
323.15 K	1128.22

CCCCCC[n+]1ccn(CC)c1.[Br-] [1-ethyl-3-hexyl-1H-imidazolium bromide]
[2]
Conditions	mass density [kg/m3]
293.15 K	1197.06
298.15 K	1193.59
303.15 K	1190.1
308.15 K	1186.58
313.15 K	1183.02
318.15 K	1179.46
323.15 K	1175.88

CCCCn1cc[n+](CCCC)c1.[Br-] [1,3-dibutylimidazolium bromide] + O
mass density [kg/m3], [1]
Conditions	m1 = 0.01076	m1 = 0.01516	m1 = 0.02165	m1 = 0.02575	m1 = 0.03042	m1 = 0.0354	m1 = 0.04047
293.15 K	998.64	998.84	999.13	999.32	999.54	999.77	1000
298.15 K	997.46	997.65	997.93	998.11	998.31	998.52	998.74
303.15 K	995.91	996.08	996.4	996.57	996.78	996.98	997.16
308.15 K	994.12	994.3	994.63	994.79	995	995.2	995.35

CCCCCCCCCCCC[n+]1ccn(CCCC)c1.[Br-] [1-butyl-3-dodecyl-1H-imidazolium bromide]
[2]
Conditions	mass density [kg/m3]
293.15 K	1059.3
298.15 K	1055.99
303.15 K	1052.6
308.15 K	1049.18
313.15 K	1045.73
318.15 K	1042.27
323.15 K	1038.83

CCCCCCCC[n+]1ccn(CC)c1.[Br-] [1-ethyl-3-octyl-1H-imidazolium bromide]
[2]
Conditions	mass density [kg/m3]
293.15 K	1148.89
298.15 K	1145.43
303.15 K	1141.74
308.15 K	1138.13
313.15 K	1134.69
318.15 K	1131.07
323.15 K	1127.5
